According to patent US4533654A, “Urotensin peptides” (The Salk Institute For Biological Studies, priority 1984, dated 1985):
Like-named read-outs stand apart in the source and are kept apart here.

Experiments:
[1] = Comparison of the two extracted and the two synthetic carp peptides (assay not specified); settings: synthetic versus extracted peptide
Method: (§1) In the pentobarbital-anaesthetized dog, the threshold dose of UI for mesenteric vasodilatation, when given close arterially into the cephalic mesenteric A, is between 0.001 and 0.01 μg for both carp UI (1-41) and for the 4-41 fragment of carp UI. Doses of 0.1-0.5 μg of both peptides produce a 50-150% increase in mesenteric flow; accompanying changes in blood pressure are very modest (about 10% decrease). […] Comp. Endocrinol. 45:446-452, 1981.

[2] = system: mesenteric vascular bed; test: Blood pressure and mesenteric vasodilatation in the anaesthetized dog; format: in vivo; settings: for potency of synthetic peptide versus extracted and purified peptide: anaesthetized dog in vivo; for dilatation of vascular beds other than mesenteric / effect on blood pressure: dog; for effect on blood pressure: appears due solely to dilatation of the mesenteric vascular bed; for accompanying decrease in blood pressure / increase in mesenteric flow: pentobarbital-anaesthetized dog, doses of 0.1-0.5 μg
Method: (§2) The urotensin peptides from Example II and III are examined for effects on the secretion of ACTH and β-endorphin in vitro and also examined in vivo. […] UI activity of the peptides was measured by the isolated rat hind limb assay, Lederis, K. et al. "Effects and Assay of Urotensin I on the Perfused Hind Limb of the Rat." Gen. Comp. Endocrinol., 24:10-16, 1974. In vivo hypotensive activity of extracted peptides was measured in anaesthetized rats, Lederis, K. and Medakovic, M. "Pharmacological Observations on the Hypotensive Action of Extracts of Teleost Fish Urophyses (Urotensin I) in the Rat." Br. J. Pharmacol. 51:315-324, 1974, and in anaesthetized dogs, MacCannell and Lederis, "Dilatation of the Mesenteric Vascular Bed of the Dog Produced by a Peptide, Urotensin I." J. Pharm. Exp. Ther. 203:38-46, 1977.
as §1

[3] = system: isolated rat hind limb; test: Isolated rat hind limb assay (UI activity)
Method: as §2, §1

[4] = system: mesenteric vascular bed; test: Blood pressure and vascular dilatation in the monkey; format: in vivo; settings: for effect on blood pressure: appears due solely to dilatation of the mesenteric vascular bed
[5] = system: cultured rat pituitary cells; test: Secretion of ACTH and β-endorphin by cultured rat pituitary cells; format: cell-based; settings: for stimulation of the secretion of ACTH and β-endorphin: in vitro
Method: as §2

[6] = system: isolated mesenteric artery strips; test: Isolated mesenteric artery strips of the rat
[7] = system: blood pressure; test: Lowering of blood pressure (summary statement, species not stated); format: in vivo
[8] = system: teleost fish pituitaries; test: Secretion of ACTH by teleost fish pituitaries
Method: as §2

[9] = system: ACTH and β-END-LI secretion; test: ACTH and β-END-LI secretion in vivo in several rat preparations
Method: as §2

[10] = system: blood pressure; test: In vivo hypotensive activity in anaesthetized rats; settings: rat; vascular dilatation appears less selective
Method: as §2

[11] = Biological activity (test not specified)
[12] = system: blood pressure; settings: mammals; reported in the literature; cited from earlier work
[13] = system: secretion of ACTH and β-endorphin; settings: reported in the literature; cited from earlier work

Compound	activity of synthetic peptide as % of the activity of the respective extracted carp UI peptide [1] [%]	potency of synthetic peptide versus extracted and purified peptide [2]	dilatation of vascular beds other than mesenteric [2]	effect on blood pressure [2]	accompanying decrease in blood pressure [2]	increase in mesenteric flow [2]	potency of synthetic peptide versus extracted and purified peptide [3]	dilatation of vascular beds other than mesenteric [4]	effect on blood pressure [4]	potency to stimulate ACTH and β-endorphin secretion relative to amunine (CRF) [5]	potency of synthetic peptide versus extracted and purified peptide [6]	potency relative to amunine in stimulating the secretion of ACTH [8]	effect on blood pressure [10]	also measured
H-NDDPPISIDLTFHLLRNMIEMARNENQREQAGLNRKYLDEV-NH2 [carp UI (1-41)]	119±19	equipotent with the extracted and purified peptides	neither peptide dilates other vascular beds	modest but sustained depression of the blood pressure	about 10%	50-150%	equipotent with the extracted and purified peptides	neither peptide dilates other vascular beds	modest but sustained depression of the blood pressure	comparable to amunine (CRF)	equipotent with the extracted and purified peptides	several times more potent than amunine	more marked fall in blood pressure	stimulation of the secretion of ACTH and β-endorphin ([5]; listed as UI): stimulate ACTH and β-endorphin activities in vitro; stimulation of the secretion of ACTH and β-endorphin ([5]; listed as urotensin I): high potency; lowering of blood pressure [7]: lower blood pressure for an extended time period; stimulation of ACTH and β-END-LI secretion in vivo ([9]; listed as UI): stimulate ACTH and β-endorphin activities in vitro and in vivo; stimulation of ACTH and β-END-LI secretion in vivo ([9]; listed as urotensin I): stimulate ACTH and β-END-LI secretion in vivo
H-PPISIDLTFHLLRNMIEMARNENQREQAGLNRKYLDEV-NH2 [UI 4-41]	123±58	equipotent with the extracted and purified peptides	neither peptide dilates other vascular beds	modest but sustained depression of the blood pressure	about 10%	50-150%	equipotent with the extracted and purified peptides	neither peptide dilates other vascular beds	modest but sustained depression of the blood pressure	comparable to amunine (CRF)	equipotent with the extracted and purified peptides	several times more potent than amunine	more marked fall in blood pressure	biological activity [11]: substantially the same biological activity as the 41-residue polypeptide; stimulation of the secretion of ACTH and β-endorphin [5]: high potency; stimulation of ACTH and β-END-LI secretion in vivo [9]: stimulate ACTH and β-END-LI secretion in vivo
CC[C@H](C)[C@H](NC(=O)[C@@H](NC(=O)[C@H](CC(=O)O)NC(=O)[C@H](CC(C)C)NC(=O)[C@H](CC(C)C)NC(=O)[C@H](CC(C)C)NC(=O)[C@H](CCCNC(=N)N)NC(=O)[C@H](CC(N)=O)NC(=O)[C@H](CC(N)=O)NC(=O)[C@H](C)NC(=O)[C@H](C)NC(=O)[C@H](CCC(N)=O)NC(=O)[C@H](CCC(N)=O)NC(=O)[C@H](CCCCN)NC(=O)[C@H](CCC(=O)O)NC(=O)[C@H](CCCCN)NC(=O)[C@H](CCC(=O)O)NC(=O)[C@H](CCC(N)=O)NC(=O)[C@H](CCCCN)NC(=O)[C@H](CCC(=O)O)NC(=O)[C@@H](NC(=O)[C@H](CCC(=O)O)NC(=O)[C@@H](NC(=O)[C@H](CCSC)NC(=O)[C@H](CCCCN)NC(=O)[C@H](CCCNC(=N)N)NC(=O)[C@H](CC(C)C)NC(=O)[C@H](CC(C)C)NC(=O)[C@H](CCC(=O)O)NC(=O)[C@H](CC(C)C)NC(=O)[C@H](CO)NC(=O)[C@H](CC(C)C)NC(=O)[C@H](CC(=O)O)NC(=O)[C@@H](NC(=O)[C@H](CO)NC(=O)[C@@H](NC(=O)[C@@H]1CCCN1C(=O)[C@@H]1CCCN1C(=O)CNC(=O)[C@@H]1CCC(=O)N1)[C@@H](C)CC)[C@@H](C)CC)[C@@H](C)CC)[C@@H](C)CC)[C@@H](C)O)C(N)=O [Sauvagine]														lowering blood pressure [12]: biological activity in lowering blood pressure in mammals; stimulating the secretion of ACTH and β-endorphin [13]: stimulating the secretion of ACTH and β-endorphin
